These are literature values, as cited in patent US11752097B2, “N-acetylcysteine compositions and methods” (Endo Ventures Limited, priority 2020, dated 2023).

For data set [1] the following is noted: Cr^3+.
For data set [2] the following is noted: pH 7, 25° C.
For data set [3] the following is noted: ambient light.
The conditions of data set [4]: pH 7.4, 25° C.
For data set [5] the following is noted: pH 7.4, RT.
The conditions of data set [6]: pH 7, RT; reaction with Hydroxyl radical (^•OH).
For data set [7] the following is noted: following intravenous administration.
For data set [8] the following is noted: Ni^2+.
For data set [9] the following is noted: Fe^3+.
The test system of data set [10] is acetaminophen-overdose-induced hepatotoxicity. The following applies: in vivo.
Experiment in data set [11]: not given
This is another data set of the same source.

Experiment in data set [12]: not given
This is another data set of the same source.

The conditions of data set [13]: Hg^2+.
For data set [14] the following is noted: Cu^2+.
For data set [15] the following is noted: pH 7.4, 37° C.; reaction with Nitroxyl (HNO).
For data set [16] the following is noted: Zn^2+.
The conditions of data set [17]: Mn^2+.
The conditions of data set [18]: pH 7, RT; reaction with Superoxide anion (O2^•−).
The conditions of data set [19]: Co^2+.
The conditions of data set [20]: pH 7.4, 37° C.
Experiment in data set [21]: not given
This is another data set of the same source.

For data set [22] the following is noted: Cd^2+.
The conditions of data set [23]: ingestion of 10-15 g in a single dose.
[24] abbreviates: 25° C. and 0.12 mol · dm^−3 ionic strength (NaClO4).
Where [25] appears, read: 37° C. and 0.15 mol · dm^−3 ionic strength (NaCl).
Where [26] appears, read: 25° C. and 0.1 mol · dm^−3 ionic strength (KNO3).

SMILES strings stand for the structures. Read-outs that look alike come from different tables or passages of the source.

Consider `CC(=O)N[C@@H](CS)C(=O)O` [Acetylcysteine, N-acetyl-L-cysteine], for which the “Complex formation constant (log K)” value in [1] (setting [24]) was 8.26; in data set [8] (setting [24]) it was 5.02; in data set [8] (setting [25]) it was 4.86; in data set [9] (setting [24]) it was 10.58; in data set [13] (setting [26]) it was 11.23; in data set [14] (setting [26]), 9.02. For the same compound, the “Complex formation constant (log K)” value in [14] (setting [25]) is 6.64; in data set [16] (setting [26]), 7.04; in [16] (setting [25]), 6.23; in [17] (setting [25]) it was 3.64; in data set [19] (setting [24]) it was 4.18; in [19] (setting [25]) it was 4.28. In addition, the “Complex formation constant (log K)” value in data set [22] (setting [26]) is given as 7.25. Besides, the Rate constant entry in data set [2] was “(1.36 ± 0.2) × 10^4 M^−1 s^−1”; in data set [4], 0.85 ± 0.09 M⁻¹ s⁻¹; in [5] it was around 1e+07 M⁻¹ s⁻¹; in data set [6] it was 1.36e+10 M⁻¹ s⁻¹; in data set [15], 500000 M⁻¹ s⁻¹; in [18] it was 68 ± 6 M⁻¹ s⁻¹. Also, the Rate constant in data set [20] and in data set [20] (reaction with Peroxynitrite) was 415 ± 10 M⁻¹ s⁻¹ throughout. Further, for the setting “following an intravenous administration”, the “half-life (t1/2)” value is 5.7 h. Moreover, where the note is “in vivo”, the “administered acetylcysteine excreted in the urine unchanged” value was 20-30%. Further, the Light stability entry in data set [3] is “stable in ambient light”. Also, in data set [7], the Potential adverse reactions result is “acute flushing and erythema of the skin, and anaphylactoid reactions”. The “Activity of isomer (prevention of hepatotoxicity)” value in [10] is “active”. Further, the redox potential entry in [11] (relative to Glutathione (reduced GSH/oxidized GSSG) system as a reference standard) is listed as “+63 mV”. Further, the “Reaction of solutions with contact materials” value in [12] (contact with rubber, some metals (particularly iron and copper surfaces), and/or autoclaving) was “discoloration and hydrogen sulfide generation”. The “Reaction with contact materials” value in [12] (glass, plastic, aluminum, anodized aluminum, chromed metal and stainless steel) is given as “does not react”. Further, in data set [21] (1 gram in alcohol), the “Solubility: volume of alcohol for 1 gram” value is given as 4 mL. Besides, the “Solubility: volume of water for 1 gram” value in data set [21] (1 gram in water) is on record as 5 mL. Besides, the Solubility in chloroform entry in data set [21] (chloroform) is “insoluble”. In [21] (ether), the Solubility in ether entry is “insoluble”.
Take `N[C@@H](CCC(=O)N[C@@H](CS)C(=O)NCC(=O)O)C(=O)O` [Glutathione]: the experimental redox potential in [11] (in the cytosol) is given as −289 mV.
Turning to `O=C(O)CN(CCN(CC(=O)O)CC(=O)O)CCN(CC(=O)O)CC(=O)O` [DTPA, diethylenetriaminepentaacetic acid], the “Complex formation constant (log K)” value is 20.32 in [8] (conditions not given); 28.60 in [9] (conditions not given); 27.00 in data set [13] (conditions not given); 21.53 in data set [14] (conditions not given); 18.75 in data set [16] (conditions not given); 15.60 in [17] (conditions not given). Besides, the “Complex formation constant (log K)” value in [19] (conditions not given) is 18.40; in data set [22] (conditions not given) it was 19.31.
Consider `CC(=O)Nc1ccc(O)cc1` [acetaminophen, Acetaminophen], for which the “time to hepatic damage after overdose” value in data set [23] was 2 to 5 days.
As for `CC(=O)N[C@H](CS)C(=O)O` (single isomer, unassigned) [D-isomer of acetylcysteine], the figures for the “Activity of isomer (prevention of hepatotoxicity)” value in data set [10] and in data set [10] (listed as D-isomer) were “not prevent hepatotoxicity” and “inactive”, respectively.
Take `O=C(O)CN(CCN(CC(=O)O)CC(=O)O)CC(=O)O` [EDTA, Ethylenediaminetetraacetic acid]: the “Complex formation constant (log K)” value in [1] (conditions not given) is listed as 23.40; in data set [8] (conditions not given), 18.62; in data set [9] (conditions not given) it was 25.10; in data set [13] (conditions not given), 21.80; in [14] (conditions not given), 18.80; in [16] (conditions not given) it was 16.50. Moreover, the “Complex formation constant (log K)” value in data set [17] (conditions not given) is given as 14.04; in data set [19] (conditions not given) it was 16.31; in [22] (conditions not given), 16.46.
